# Laboratory results as given in ChEMBL document CHEMBL1145428, “A novel arginine methyltransferase inhibitor with cellular activity” (Bioorg Med Chem Lett, 2007).
# The source made the active and inactive calls. The rule behind the calls is not given here.
# Key:
# [1] = biological target: Protein arginine N-methyltransferase 1 (Homo sapiens) (UniProt Q99873); experiment: Inhibition of human PRMT1 at 40 uM by TRF assay; design: scale not given: the % may be the effect or the level left
# [2] = biological target: RmtA (Emericella nidulans) (UniProt Q5VLE3); experiment: Inhibition of Aspergillus nidulans RmtA at 40 uM by TRF assay; design: scale not given: the % may be the effect or the level left
# RmtA (Emericella nidulans), sequence (Q5VLE3 as listed by the source): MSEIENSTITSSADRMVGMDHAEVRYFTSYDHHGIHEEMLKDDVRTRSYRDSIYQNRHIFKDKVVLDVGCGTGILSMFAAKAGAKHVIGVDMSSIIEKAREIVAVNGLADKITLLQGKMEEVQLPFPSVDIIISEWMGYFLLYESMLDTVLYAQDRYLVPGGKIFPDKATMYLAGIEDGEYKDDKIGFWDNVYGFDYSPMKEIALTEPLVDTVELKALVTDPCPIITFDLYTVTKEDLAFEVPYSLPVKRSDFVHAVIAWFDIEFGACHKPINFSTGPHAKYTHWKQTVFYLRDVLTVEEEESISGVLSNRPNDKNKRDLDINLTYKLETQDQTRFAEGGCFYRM
# RmtA = RmtA (Emericella nidulans, UniProt Q5VLE3); experiment: Inhibition of Aspergillus nidulans RmtA by TRF assay
# RmtA, sequence (Q5VLE3 whole entry): as the sequence (Q5VLE3 as listed by the source) above
# [3] = biological target: T1, Histone-lysine N-methyltransferase SETD7 (Homo sapiens) (UniProt Q8WTS6); experiment: Inhibition of lysine methyltransferase SET7/9 at 50 uM
# T1 sequence (whole entry): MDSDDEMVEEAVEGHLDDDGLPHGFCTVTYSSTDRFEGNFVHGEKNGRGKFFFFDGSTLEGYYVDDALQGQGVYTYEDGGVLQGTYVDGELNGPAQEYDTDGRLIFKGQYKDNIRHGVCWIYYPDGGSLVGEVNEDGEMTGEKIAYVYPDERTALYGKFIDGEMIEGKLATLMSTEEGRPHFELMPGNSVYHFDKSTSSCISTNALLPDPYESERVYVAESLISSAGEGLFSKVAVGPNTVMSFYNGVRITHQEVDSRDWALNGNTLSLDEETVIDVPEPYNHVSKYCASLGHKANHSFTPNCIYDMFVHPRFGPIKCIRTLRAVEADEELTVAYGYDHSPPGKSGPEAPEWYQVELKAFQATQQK
# Protein arginine N-methyltransferase 1 (Homo sapiens), sequence (Q99873 whole entry, looked up): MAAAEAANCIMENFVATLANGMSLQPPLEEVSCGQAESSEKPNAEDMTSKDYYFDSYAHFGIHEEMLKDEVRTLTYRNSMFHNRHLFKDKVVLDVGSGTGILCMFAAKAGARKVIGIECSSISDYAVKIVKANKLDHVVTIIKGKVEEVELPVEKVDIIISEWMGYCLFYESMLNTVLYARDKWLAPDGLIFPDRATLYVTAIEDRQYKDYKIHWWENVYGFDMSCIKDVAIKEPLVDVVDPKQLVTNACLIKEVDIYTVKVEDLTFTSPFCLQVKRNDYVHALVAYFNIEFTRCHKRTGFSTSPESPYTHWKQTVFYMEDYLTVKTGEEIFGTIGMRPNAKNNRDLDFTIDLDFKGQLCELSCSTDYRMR
Activity [1] [%],Activity [2] [%],IC50 (RmtA) [µM],Activity [3],SMILES
< 20,< 20,,,CC(SC1c2ccccc2Oc2ccccc21)C(=O)NCCOCCOCCNC(=O)C(C)SC1c2ccccc2Oc2ccccc21 (stereo not given)
< 20,< 20,,,CC(SC1c2ccccc2Sc2ccccc21)C(=O)N1CCCC1 (stereo not given)
< 20,,46.8,,CC(S)C(=O)NCCCN (stereo not given)
,,46.2,inactive,CC(SC1c2ccccc2Oc2ccccc21)C(=O)NCCNC(=O)C(C)SC1c2ccccc2Oc2ccccc21 (stereo not given)

SMILES,Activity [1] [%],Activity [2] [%],IC50 (RmtA) [µM],Activity [3]
O=C(CSC1c2ccccc2Oc2ccccc21)N1CCCCC1,< 20,< 20,,
